The results in this text go back to patent US12492210B2, “Tricyclic compounds and their use” (HUTCHISON MEDIPHARMA LIMITED, priority 2019, dated 2025).

Broadly, the IC50 is the concentration that inhibits the measured activity by half.

The target in one test is T1, MAPK1(ERK2) enzyme (Homo sapiens, UniProt P28482).
T1 construct: purchased Invitrogen PV3313
Nature of the test: Z-Lyte Kinase Assay of ERK2. The settings on record: read-out: Example 18 IC50. The class given is biochemical. The method in brief:
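FRET-based Z-LYTE assay using ERK2 kinase with Ser/Thr3 peptide; compound tested at 0.00046–1 μM final in 2% DMSO. Kinase reaction ran 1 h at 25-30° C, followed by 1 h development. The coumarin/fluorescein emission ratio (445/520 nm) gave % phosphorylation, and IC50 was fitted from inhibition relative to uninhibited control.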

The subject of test [1] is p-RSK (Thr359) in colo205 cells. Nature of the test: p-RSK (Thr359) Acumen Assay in Colo205. The class given is cell-based. Conditions: Homo sapiens, COLO 205, 1 hour compound incubation, read-out: Example 19 IC50. The method in brief: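 Colo205 cells (4000/well, seeded overnight in 10% FBS) were exposed 1 hour at 37° C to compound added from a 3–0.001 μM dilution series in 5% DMSO. Cells were then fixed, permeabilised and immunostained for p-RSK Thr359, with PI counterstain. Acumen cytometry gave the percentage of positive cells, normalised to untreated wells and 3 uM GDC0994 wells, for the IC50 fit.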

T1 sequence (P28482 whole entry): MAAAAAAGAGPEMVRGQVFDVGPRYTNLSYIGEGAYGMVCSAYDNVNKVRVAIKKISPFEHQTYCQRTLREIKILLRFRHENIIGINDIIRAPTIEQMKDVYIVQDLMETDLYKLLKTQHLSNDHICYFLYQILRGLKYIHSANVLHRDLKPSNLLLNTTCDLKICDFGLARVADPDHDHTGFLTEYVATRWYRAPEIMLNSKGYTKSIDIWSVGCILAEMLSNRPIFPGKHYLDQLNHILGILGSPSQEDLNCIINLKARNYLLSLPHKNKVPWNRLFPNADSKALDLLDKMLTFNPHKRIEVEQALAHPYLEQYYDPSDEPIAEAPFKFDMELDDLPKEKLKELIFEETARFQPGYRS

In the case of `Cn1nccc1Nc1cc(-c2cc3n(c2)C[C@H](O)Cn2c-3nnc2C2(C(F)(F)F)CCC2)c(Cl)cn1` [Compound 215, (S)-10-(5-chloro-2-((1-methyl-1H-pyrazol-5-yl)amino)pyridin-4-yl)-3-(1-(trifluoromethyl)cyclobutyl)-6,7-dihydro-5H-pyrrolo[1,2-a][1,2,4]triazolo[3,4-c][1,4]diazepin-6-ol], the IC50 is ≤ 5 nM on MAPK1(ERK2) enzyme and ≤ 100 nM in test [1].
Consider `Cc1cnc(Nc2ncnn2C)cc1-c1cc2n(c1)C[C@H](CF)n1c-2nnc1C(F)(F)c1ccccc1Cl` [Compound 173], for which the IC50 is 5 to 10 nM on MAPK1(ERK2) enzyme and > 100 nM in test [1].
On to `Cn1nccc1Nc1nccc(-c2cc3n(c2)CCCn2c(CCc4ccccc4F)nnc2-3)n1` [Compound 1, 4-(3-(2-fluorophenethyl)-6,7-dihydro-5H-pyrrolo[1,2-a][1,2,4]triazolo[3,4-c][1,4]diazepin-10-yl)-N-(1-methyl-1H-pyrazol-5-yl)pyrimidin-2-amine], for which the IC50 on MAPK1(ERK2) enzyme is ≤ 5 nM; in test [1], > 100 nM.
Regarding `COC[C@H]1Cn2cc(-c3cc(Nc4ccnn4C)ncc3C)cc2-c2nnc(C(F)(F)c3ccccc3Cl)n21` [Compound 201], the IC50 on MAPK1(ERK2) enzyme was > 10 nM; in test [1] it was ≤ 100 nM.
On to `Cc1cnc(Nc2ccnn2C)nc1-c1cn2c(n1)-c1nnc(C(F)(F)c3ccccc3Cl)n1[C@@H](CF)C2` [Compound 225], for which the IC50 on MAPK1(ERK2) enzyme is ≤ 5 nM; in test [1] it was ≤ 100 nM.
Consider `Cn1nccc1Nc1cc(-c2cc3n(c2)CC(F)(F)Cn2c(Cn4cccc4C#N)nnc2-3)c(Cl)cn1` [Compound 217, 1-((10-(5-chloro-2-((1-methyl-1H-pyrazol-5-yl)amino)pyridin-4-yl)-6,6-difluoro-6,7-dihydro-5H-pyrrolo[1,2-a][1,2,4]triazolo[3,4-c][1,4]diazepin-3-yl)methyl)-1H-pyrrole-2-carbonitrile], for which the results for the IC50 (at MAPK1(ERK2) enzyme; in test [1]) were ≤ 5 nM and ≤ 100 nM, respectively.
Take `Cn1nccc1Nc1cc(-c2cc3n(c2)CC(F)(F)Cn2c-3nnc2C(F)(F)C(F)F)c(Cl)cn1` [Compound 113]: the IC50 on MAPK1(ERK2) enzyme is 5 to 10 nM; in test [1] it was > 100 nM.
As to `COC[C@H]1Cn2cc(-c3cc(Nc4ccnn4C)ncc3Cl)cc2-c2nnc(C(F)(F)C(F)F)n21` [Compound 301], the values for the concentration for half-maximal inhibition (IC50) (at MAPK1(ERK2) enzyme; in test [1]) were ≤ 5 nM and > 100 nM, respectively.
Turning to `Cn1nccc1Nc1cc(-c2cc3n(c2)CC2(COC2)Cn2c-3nnc2C(F)(F)C(F)F)c(Cl)cn1` [Compound 304, 5-chloro-N-(1-methyl-1H-pyrazol-5-yl)-4-(3′-(1,1,2,2-tetrafluoroethyl)-5′H,7′H-spiro[oxetane-3,6′-pyrrolo[1,2-a][1,2,4]triazolo[3,4-c][1,4]diazepin]-10′-yl)pyridin-2-amine], the half-inhibitory concentration (IC50) is ≤ 5 nM at MAPK1(ERK2) enzyme and ≤ 100 nM in test [1].
Turning to `Cc1c(-c2ccnc(Nc3ccnn3C)n2)cn2c1-c1nnc(COc3ccccc3F)n1CCC2` [Compound 16], the results for the IC50 (at MAPK1(ERK2) enzyme; in test [1]) were ≤ 5 nM and ≤ 100 nM, respectively.
Consider `Cn1nccc1Nc1nccc(-c2cn3c(c2F)-c2nnc(COc4ccccc4F)n2CCC3)n1` [Compound 246], for which the IC50 at MAPK1(ERK2) enzyme was ≤ 5 nM; in test [1] it was ≤ 100 nM.
For `Cc1cnc(Nc2ccnn2C)cc1-c1cc2n(c1)[C@@H]1CC[C@@H](C1)n1c-2nnc1C(F)(F)C(F)F` [Compound 65], in that order: ≤ 5 nM and ≤ 100 nM.
Consider `Cn1nccc1Nc1cc(-c2cc3n(c2)C[C@H](F)Cn2c-3nnc2C2(C(F)(F)F)CCC2)c(F)cn1` [Compound 85], for which the IC50 on MAPK1(ERK2) enzyme was ≤ 5 nM; in test [1] it was ≤ 100 nM.
As to `Cn1nccc1Nc1cc(-c2cc3n(c2)CC2(CCC2)Cn2c-3nnc2C(F)(F)C(F)F)c(Cl)cn1` [Compound 119], the IC50 was 5 to 10 nM on MAPK1(ERK2) enzyme and > 100 nM in test [1].
Consider `Cc1cnc(Nc2ccnn2C)cc1-c1cc2n(c1)C[C@H](CF)n1c-2nnc1C(F)(F)c1ncccc1Cl` [Compound 174], for which the figures for the IC50 (at MAPK1(ERK2) enzyme; in test [1]) were ≤ 5 nM and ≤ 100 nM, respectively.
For `Cc1cc(Nc2ncc(C)c(-c3cc4n(c3)C[C@H](C)n3c-4nnc3C(F)(F)c3ccccc3F)n2)n(C)n1` [Compound 288], in that order: > 10 nM and ≤ 100 nM.
For `COc1cnc(Nc2ccnn2C)cc1-c1cc2n(c1)CC(F)(F)Cn1c-2nnc1C1(C(F)(F)F)CCC1` [Compound 214], the IC50 at MAPK1(ERK2) enzyme is 5 to 10 nM; in test [1], > 100 nM.
On to `Cc1cnc(Nc2ccnn2C)cc1-c1cc2n(c1)CCn1c-2nnc1C(F)(F)c1ccccc1Cl` [Compound 90], for which the IC50 at MAPK1(ERK2) enzyme was 5 to 10 nM; in test [1], ≤ 100 nM.
With `Cc1nonc1Cc1nnc2n1CCCn1cc(-c3cc(Nc4ccnn4C)ncc3Cl)cc1-2` [Compound 10], the values for the IC50 (on MAPK1(ERK2) enzyme; in test [1]) were ≤ 5 nM and > 100 nM, respectively.
As for `Cn1nccc1Nc1ncc(F)c(-c2cc3n(c2)C[C@H](CF)n2c-3nnc2C(F)(F)n2cc(Cl)cn2)n1` [Compound 166], the figures for the IC50 (at MAPK1(ERK2) enzyme; in test [1]) were ≤ 5 nM and ≤ 100 nM, respectively.
Turning to `Cn1nccc1Nc1cc(-c2cc3n(c2)CCCCn2c-3nnc2C2(C(F)(F)F)CCC2)c(Cl)cn1` [Compound 261], the IC50 on MAPK1(ERK2) enzyme is > 10 nM; in test [1], ≤ 100 nM.
As to `C[C@H]1Cn2cc(-c3cc(Nc4ccnn4C)ncc3F)cc2-c2nnc(C(F)(F)n3cc(Cl)cn3)n21` [Compound 109], the IC50 on MAPK1(ERK2) enzyme is ≤ 5 nM; in test [1], > 100 nM.
For the compound `Cc1cnc(Nc2ccnn2C)nc1-c1cc2n(c1)C[C@H](C(F)F)n1c-2nnc1C(F)(F)c1ccccc1F` [Compound 186], the results for the half-inhibitory concentration (IC50) (at MAPK1(ERK2) enzyme; in test [1]) were 5 to 10 nM and ≤ 100 nM, respectively.
On to `Cc1cnc(Nc2ccnn2C)cc1-c1cc2n(c1)C[C@H](CF)n1c-2nnc1C(F)(F)c1ccccc1F` [Compound 126], for which the results for the IC50 (at MAPK1(ERK2) enzyme; in test [1]) were 5 to 10 nM and ≤ 100 nM, respectively.
For `Cc1cnc(Nc2ccnn2C)nc1-c1cc2c3nnc(C4(C(F)(F)F)CCC4)n3ccn2c1` [Compound 231], in that order: ≤ 5 nM and ≤ 100 nM.
`Cn1nccc1Nc1cc(-c2cc3n(c2)CC(F)(F)Cn2c(Cn4ccc(F)c4C#N)nnc2-3)c(Cl)cn1` [Compound 218]: the IC50 at MAPK1(ERK2) enzyme was 5 to 10 nM; in test [1] it was ≤ 100 nM.
In the case of `Cn1nccc1Nc1cc(-c2cc3n(c2)C[C@H](CF)n2c-3nnc2C(F)(F)n2cc(Cl)cn2)c(F)cn1` [Compound 164], the IC50 at MAPK1(ERK2) enzyme was ≤ 5 nM; in test [1], ≤ 100 nM.
For `COCCn1nccc1Nc1ncc(C)c(-c2cc3n(c2)C[C@H](C)n2c-3nnc2C(F)(F)c2ccccc2F)n1` [Compound 296], the IC50 at MAPK1(ERK2) enzyme is 5 to 10 nM; in test [1] it was ≤ 100 nM.
Regarding `Cc1cnc(Nc2ccnn2C(F)F)nc1-c1cn2c(n1)-c1nnc(C(F)(F)c3ccccc3F)n1[C@@H](C)C2` [Compound 226], the results for the IC50 (on MAPK1(ERK2) enzyme; in test [1]) were ≤ 5 nM and ≤ 100 nM, respectively.
For `Cc1cnc(Nc2ccnn2C)nc1-c1cc2n(c1)C[C@H](C)n1c-2nnc1C(F)(F)c1c(F)cccc1F` [Compound 130], the IC50 at MAPK1(ERK2) enzyme is 5 to 10 nM; in test [1] it was > 100 nM.
`Cc1cnc(NC2CCc3ncnn3C2)nc1-c1cc2n(c1)C[C@H](C)n1c-2nnc1C(F)(F)c1ccccc1F` (stereo partly shown) [Compound 280]: the IC50 at MAPK1(ERK2) enzyme is 5 to 10 nM; in test [1] it was > 100 nM.
In the case of `C[C@H](Oc1ccccc1F)c1nnc2c3cc(-c4ccnc(Nc5ccnn5C)n4)cn3ccn12` [Compound 39, (S)-4-(3-(1-(2-fluorophenoxy)ethyl)pyrrolo[1,2-a][1,2,4]triazolo[3,4-c]pyrazin-9-yl)-N-(1-methyl-1H-pyrazol-5-yl)pyrimidin-2-amine], the IC50 was 5 to 10 nM on MAPK1(ERK2) enzyme and ≤ 100 nM in test [1].
In the case of `Cn1nccc1Nc1nccc(-c2cc3n(c2)C[C@H](CF)n2c-3nnc2C(F)(F)c2ccccc2Cl)n1` [Compound 142], the IC50 is 5 to 10 nM at MAPK1(ERK2) enzyme and ≤ 100 nM in test [1].
`C[C@H]1Cn2cc(-c3cc(Nc4ccnn4C)ncc3Cl)cc2-c2nnc(C(F)(F)c3ccccc3F)n21` [Compound 135]: the IC50 is 5 to 10 nM at MAPK1(ERK2) enzyme and ≤ 100 nM in test [1].
For the compound `Cn1nccc1Nc1cc(-c2cc3n(c2)CC2(CC2)Cn2c(CCC(F)(F)F)nnc2-3)c(Cl)cn1` [Compound 254], the IC50 at MAPK1(ERK2) enzyme was ≤ 5 nM; in test [1], ≤ 100 nM.
For `Cn1nccc1Nc1cc(-c2cc3n(c2)CCCn2c(COc4ccccc4F)nnc2-3)c(Cl)cn1` [Compound 38], in that order: > 10 nM and ≤ 100 nM.
As to `Cc1cnc(Nc2ccnn2C)nc1-c1cn2c(n1)-c1nnc(C(F)(F)c3ccccc3Cl)n1[C@H](C)C2` [Compound 221], the figures for the IC50 (at MAPK1(ERK2) enzyme; in test [1]) were ≤ 5 nM and ≤ 100 nM, respectively.
For `Cc1cnc(Nc2nncs2)nc1-c1cc2n(c1)C[C@H](C)n1c-2nnc1C(F)(F)c1ccccc1F` [Compound 287], in that order: 5 to 10 nM and ≤ 100 nM.
For the compound `Cc1cnc(NC2CCOCC2)nc1-c1cc2n(c1)CCCn1c-2nnc1C1(C(F)(F)F)CCC1` [Compound 277], the IC50 on MAPK1(ERK2) enzyme is ≤ 5 nM; in test [1], ≤ 100 nM.
Consider `Cc1cnc(Nc2ccnn2C)cc1-c1cc2n(c1)C[C@H](CF)n1c-2nnc1C(F)(F)c1ccccc1` [Compound 86], for which the results for the IC50 (on MAPK1(ERK2) enzyme; in test [1]) were 5 to 10 nM and ≤ 100 nM, respectively.
For `Cn1nccc1Nc1cc(-c2cc3n(c2)CCCn2c-3nnc2[C@H](O)C2CCCCC2)c(Cl)cn1` [Compound 24], in that order: 5 to 10 nM and > 100 nM.
